Tests used:
A375-NRAS^Q61K = assay: Pan-Cancer PepTile fitness screen (lentiviral 40-mer peptide library, NGS abundance); assay type: cell-based, human; details: peptide enrichment day 14 vs day 0
Protocol: (§1) A peptide tilling screen was performed in A375 similarly to a screen done in MDA-MB-231 (FIG. 1) but with a different lentiviral library. The library (Pan-Cancer library) is composed of 1020 genes tiled every 6 amino acids into 40-mer amino acid long peptides. The gene selection was based on their implication in oncogenesis either being as oncogenes or tumor suppressors. The list was built using recent literature that identified new cancer drivers as well as databases such as Uniprot keywords (KW-0656: Proto-oncogene, KW-0043: Tumor suppressor), and Gene Ontology terms (GO1900117: Apoptosis, GO1901979: Cell cycle checkpoint) (FIG. 2). Aside from Human genes, a list of viral genes was also included (KW-1121: Modulation of host cell cycle by virus) that play roles in high jacking cell cycle progression and thus in oncogenesis (FIG. 2).
(§2) The model of study is melanoma, and this disease is stratified into 4 molecular subtypes, BRAF mutants, NRAS mutants, KIT amplification, NF1 mutations (FIG. 3A). The most prominent mutations found in patient affected with metastatic melanomas are BRAF^V600E and NRAS^Q61K (FIG. 3B). RAS play a key role in oncogenesis and resistance to treatments. Indeed, RAS activating mutations is found in ~20% of all human cancers and secondary NRAS mutation leads to acquired resistance to BRAF targeted therapy such as vemurafenib. Thus, the screen was performed in an A375 cell line model which derived from human BRAF^V600E melanoma as well as an engineered A375 transduced with HA-NRAS^Q61K (FIG. 4A, B). Both cell lines grow at a similar rate but the A375-NRAS^Q61K display more than 10-fold resistance to vemurafenib treatment compared to parental A375 (FIG. 4C, D).
(§3) These cells were transduced with the Pan-Cancer library at a low multiplicity of infection (MOI=0.1-0.3). Then, genomic DNA was extracted at day 0 and day 14 post-transduction to quantify the abundance of peptide for each temporal conditions using Next-generation sequencing. Each experimental replicates were deep sequenced with at least 150 million reads and show a coverage between 82-90% of the initial Pan-Cancer Peptide library (FIG. 5). Then, for each individual peptides a cellular fitness score was calculated based on their enrichment between day 0 and day 14. 8090 peptides negatively affecting growth of A375-WT were identified and 8153 peptides for the A375-NRAS^Q61K cell line (FIG. 6). […] Those common hits are found to be tiles from ~100 genes of the Pan-Cancer gene list and show a substantial biological function clustering.

A375-WT = assay: Pan-Cancer PepTile/PiTile fitness screen (lentiviral 40-mer peptide library, NGS abundance); assay type: cell-based, human; parameters: key: enrichment of each peptide's NGS abundance, early day vs Day 14; details: for A375-WT Fitness Score: Pan-Cancer library, peptide enrichment day 14 vs day 0; for Fitness score: PanCancer Peptide Table (Table 3), lentivirally expressed 40-mer peptide tile
Text: FIGS. 13A-13D show Pan-Cancer PiTile Workflow. (A) The Pan-Cancer peptide library is composed of 1081 proteins tiled into 40-mer peptides at every 6 amino acids of the parental protein. The DNA-encoded library is cloned into lentiviral vectors and packaged into lentivirus. (B) A375 cell line was transduced with the Pan-Cancer PiTile library. Genomic DNA was then harvested at Day2 and Day 14 post-transduction and cell populations abundance expressing the different peptides were quantified using Next-Generation Sequencing (NGS). Peptide fitness score was then calculated by the abundance of each peptide at Day2 versus Day 14. Then the fitness signal is mapped over the original amino acid positions of the derived protein. (C) Coverage of the plasmid Pan-Cancer library and peptide-amplicons from Day2 and Day 14 replicated was determined by NGS. (D) Dot plot of the experimental result obtain from screening the Pan-Cancer library in A375 cell line.
as §1, §2, §3
We built a DNA-encoded peptide library composed of all known Human oncogenes and Tumor Suppressors that we fragmented in 40 amino acid long peptides, the Pan-Cancer library. Using lentiviral expression system, we transduced the Pan-Cancer library in A375 cell line. After 14 days of growth, the frequency of each peptide is measured by NGS and this reveal which peptides affect cell fitness. […]

Substance	A375-NRAS Fitness Score (A375-NRAS^Q61K)	A375-WT Fitness Score (A375-WT)	Fitness score (A375-WT)	Fitness score (A375-WT; negative = depleted)
AXIN1_22: 40-mer peptide tile of AXIN1, AA start position 126, RGS domain (KLEPCDSNEEKRLKLARAIYRKYILDNNGIVSRQTKPATK; RGS domain peptide tile; UniProt O15169 126-165, looked up, fragment)	−0.54	−2.88		
BRAF_64: 40-mer peptide tile of BRAF, AA start position 378, CR2 domain (NIDDLIRDQGFRGDGGSTTGLSATPPASLPGSLTNVKALQ; UniProt P15056 378-417, looked up, fragment)	−2.72	−2.28		
CDKN2B_4: 40-mer peptide tile of CDKN2B, AA start position 18, ANK domain (LASAAARGLVEKVRQLLEAGADPNGVNRFGRRAIQVMMMG; UniProt P42772 18-57, looked up, fragment)	−3.63	0.36		
CTNNB1_30: 40-mer peptide tile of CTNNB1, AA start position 174, Armadillo domain (MVHQLSKKEASRHAIMRSPQMVSAIVRTMQNTNDVETARC; UniProt P35222 174-213, looked up, fragment)	−0.85	−3.29	−3.30	
DOCK4_114: 40-mer peptide tile of DOCK4, AA start position 678, Armadillo domain (LIKVLKWYVDRITEAERQEHIQEVLKAQEYIFKYIVQSRR; UniProt Q8N1I0 678-717, looked up, fragment)	−3.45	0.87		
ELF4_39: 40-mer peptide tile of ELF4, AA start position 228, ETS domain	−1.35	−2.44		
EP300_99: 40-mer peptide tile of EP300, AA start position 588, KIX domain	0.86	−3.20		
FER_38: 40-mer peptide tile of FER, AA start position 222, F-BAR domain (LKGIFDEYSQITSLVTEEIVNVHKEIQMSVEQIDPSTEYN; UniProt P16591 222-261, looked up, fragment)	−1.48	−2.21		
FLCN_43: 40-mer peptide tile of FLCN, AA start position 252, Longin domain (ACLHTSFAWLLKACGSRLTEKLLEGAPTEDTLVQMEKLAD; UniProt Q8NFG4 252-291, looked up, fragment)	−1.99	−1.76		
FZD3_55: 40-mer peptide tile of FZD3, AA start position 324, Transmembrane domain (IEKKALLFHASAWGIPGTLTIILLAMNKIEGDNISGVCFV; UniProt Q9NPG1 324-363, looked up, fragment)	−3.27	−3.21		
MAD1L1_78: 40-mer peptide tile of MAD1L1, AA start position 462, Coiled Coil domain (ELGGQKQRADMLEMELKMLKSQSSSAEQSFLFSREEADTL; UniProt Q9Y6D9 462-501, looked up, fragment)	−3.52	−4.42		
MTOR_42: 40-mer peptide tile of MTOR, AA start position 246, HEAT domain	1.01	−3.36		−3.37
PIK3CA_38: 40-mer peptide tile of PIK3CA, AA start position 222, RBD (AEAIRKKTRSMLLSSEQLKLCVLEYQGKYILKVCGCDEYF; UniProt P42336 222-261, looked up, fragment)	−0.85	−2.72		
